The values that follow come from patent US8546443B2, “Benzylic oxindole pyrimidines” (Boehringer Ingelheim International GmbH, priority 2010, dated 2013).

The test system of assay [1] is TC-71 (Ewing's sarcoma) cells. Briefly: Cell proliferation assay, TC-71 (Alamar Blue). The settings on record: 72 h with compound, EC50 ranges as class symbols. The class given is cell-based. On the procedure:
Cell Proliferation Assays
Compounds were tested for their anti-proliferative effects in the TC-71 (Ewing's sarcoma) and HCT 116 (colorectal carcinoma) cancer cell lines in vitro. Published scientific data has described that interference with the Insulin-like Growth Factor-1 Receptor (IGF-1R) signaling pathway reduces the proliferation of TC-71 cells. Therefore TC-71 cells served as a positive control cell line for monitoring the activity of compounds against IGF-1R-mediated cell proliferation. […] Therefore the HCT 116 cell line served as a negative control.
2000 TC-71 cells or 1000 HCT 116 cells were seeded per well in 180 μL IMDM+10% foetal calf serum (FCS)+ penicillin/streptomycin into 96-well microtitre plates. The plates were placed in a cell culture incubator (37° C. in a humidified atmosphere of […]/5 CO2) overnight. The following day, serial dilutions of compounds, prepared in duplicates, were transferred onto the cell layers (controls without compound). The cells were cultivated for a further 72 h in the cell culture incubator. 20 μL of Alamar Blue™ (Serotec Ltd, Düsseldorf, Germany) was added to each well and the plates incubated for 7 h in the cell culture incubator. Fluorescence (extinction wavelength of 544 nm and emission at 590 nm) was then measured and the normalized data fitted by iterative calculation with a sigmoidal curve analysis program (Graph Pad Prism) with a variable Hill slope to determine the IC50 values.

In assay [2] the target is T1, cytoplasmic kinase domain of human IGF-1R (IGF-1R-GST) (Homo sapiens, UniProt P08069).
T1 construct: cytoplasmic kinase domain of human IGF-1R (amino acids 964-1370); GST (glutathione-S-transferase); made in house; host or cells: High Five insect cells (Invitrogen)
T1 sequence (P08069 964-1367 limits assumed): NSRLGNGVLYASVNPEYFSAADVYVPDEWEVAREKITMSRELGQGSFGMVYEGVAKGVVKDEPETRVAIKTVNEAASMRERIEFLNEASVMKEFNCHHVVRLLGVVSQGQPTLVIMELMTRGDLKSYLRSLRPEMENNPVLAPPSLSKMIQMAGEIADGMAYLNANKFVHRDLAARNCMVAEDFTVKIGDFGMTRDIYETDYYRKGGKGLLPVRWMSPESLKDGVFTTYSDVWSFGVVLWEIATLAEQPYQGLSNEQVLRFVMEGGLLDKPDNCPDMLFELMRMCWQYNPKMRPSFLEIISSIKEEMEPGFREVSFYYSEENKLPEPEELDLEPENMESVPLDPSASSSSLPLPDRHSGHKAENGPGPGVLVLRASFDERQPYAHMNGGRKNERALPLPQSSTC
Briefly: Insulin-like growth factor-1 receptor (IGF-1R) kinase assay (DELFIA). The class given is biochemical. Conditions: IGF-1R-GST kinase activity, read-out: IGF1R IC50. The gist of the method:
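GST-tagged IGF-1R cytoplasmic kinase domain phosphorylates pEY with biotinylated pEY for 40 min at RT; EDTA stop. Product captured on streptavidin, detected with europium anti-phosphotyrosine antibody by DELFIA time-resolved fluorescence; IC50 from inhibition curves.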

Molecules are shown by their SMILES. Where only a bound is given, the exact number is not on record here.

As to `Cc1cc(C2CCN(C(N)=O)CC2)ccc1Nc1ncc(Cl)c(NCc2cccc3c2C(C)(C)C(=O)N3)n1` [Example I-294], the concentration for a half-maximal effect (EC50) in assay [1] is 250 to 3000 nM. Besides, the IC50 in assay [2] is 7 nM. For `CNC(=O)CN1CCCC(c2ccc(Nc3ncc(Br)c(NCc4cccc5c4C(C)(C)C(=O)N5)n3)c(C)c2)C1` (racemic) [Example I-366], the EC50 in assay [1] was 50 to 250 nM. For the same compound, the IC50 in assay [2] came to 2 nM. `COc1cc(N2CCN(CC(C)(C)O)CC2)ccc1Nc1ncc(Cl)c(NCc2cccc3c2C(C)(C)C(=O)N3)n1` [Example I-335]: in assay [1], the EC50 was below 50 nM. The IC50 in assay [2] was 3 nM. Turning to `Cc1cc(C2CCN(C)CC2)ccc1Nc1ncc(Br)c(NCc2cccc3c2C(C)(C)C(=O)N3)n1` [Example I-103], in assay [1], the EC50 was below 50 nM. In addition, in assay [2], the IC50 was found to be 0.69 nM. In the same order, the values of `COc1cc(N2CCN(CC(C)(C)O)CC2)ccc1Nc1ncc(C(F)(F)F)c(NCc2cccc3c2C(C)(C)C(=O)N3)n1` [Example I-304] are below 50 nM and 1 nM.

With `Cc1cc(C2CCCN(CC(C)(C)O)C2)ccc1Nc1ncc(Cl)c(NCc2cccc3c2C(C)(C)C(=O)N3)n1` (racemic) [Example I-328], the EC50 in assay [1] is below 50 nM. For the same compound, the IC50 in assay [2] is 1 nM.

Regarding `COCCN1CCCC(c2ccc(Nc3ncc(Br)c(NCc4cccc5c4C(C)(C)C(=O)N5)n3)c(OC)c2)C1` (racemic) [Example I-360], in assay [1], the EC50 was below 50 nM. In addition, the IC50 in assay [2] came out at 0.6 nM. Consider `COCCN1CCC(c2ccc(Nc3ncc(Br)c(NCc4cccc5c4C(C)(C)C(=O)N5)n3)cc2)CC1` [Example I-208], for which, in assay [1], the EC50 lay in the range of 50 to 250 nM. Also, in assay [2], the IC50 was 0.68 nM. On the same counts, the results for `CC1(C)C(=O)Nc2cccc(CNc3nc(Nc4ccc(C5CCN(CCCF)CC5)cc4)ncc3Cl)c21` [Example I-213] are 50 to 250 nM and 4 nM. On the same counts, the results for `COc1cc(N2CCN(C)CC2)ccc1Nc1ncc(C(F)(F)F)c(NCc2cccc3c2C2(CC2)C(=O)N3)n1` [Example I-160] are 250 to 3000 nM and 4 nM. On the same counts, the results for `COc1cc(C2CCCN(CC(C)(C)O)C2)ccc1Nc1ncc(C(F)(F)F)c(NCc2cccc3c2C(C)(C)C(=O)N3)n1` (racemic) [Example I-301] are below 50 nM and 1.6 nM.

For `CNC1(C(=O)N2CCC(c3ccc(Nc4ncc(Cl)c(NCc5cccc6c5C(C)(C)C(=O)N6)n4)c(C)c3)CC2)CC1` [Example I-295], in assay [1], the EC50 is 50 to 250 nM. Further, the IC50 in assay [2] was 4 nM.

For the compound `COCCN1CCCC(c2ccc(Nc3ncc(C(F)(F)F)c(NCc4cccc5c4C(C)(C)C(=O)N5)n3)c(C)c2)C1` (racemic) [Example I-356], the EC50 in assay [1] is below 50 nM. For the same compound, the IC50 in assay [2] worked out at 0.8 nM.

With `COCCN1CCC(c2ccc(Nc3ncc(Cl)c(NCc4cccc5c4C(C)(C)C(=O)N5)n3)cc2C)CC1` [Example I-376], in assay [1], the concentration for a half-maximal effect (EC50) is below 50 nM. In addition, in assay [2], the concentration for half-maximal inhibition (IC50) amounted to 0.6 nM. With `CC(C)(O)CN1CCC(c2ccc(Nc3ncc(C(F)(F)F)c(NCc4cccc5c4C(C)(C)C(=O)N5)n3)c(OC(F)F)c2)CC1` [Example I-310], the 50% effective concentration (EC50) in assay [1] lay within 50 to 250 nM. In addition, the IC50 in assay [2] was 5 nM. On the same counts, the results for `COc1cc(C2CCN(CC(C)(C)O)CC2)ccc1Nc1ncc(C(F)(F)F)c(NCc2cccc3c2C(C)(C)C(=O)N3)n1` [Example I-302] are below 50 nM and 0.6 nM. On the same counts, the results for `Cc1cc([C@@H]2CCCN(CC(C)(C)O)C2)ccc1Nc1ncc(Br)c(NCc2cccc3c2C(C)(C)C(=O)N3)n1` [Example I-320] are below 50 nM and 0.9 nM.

For the compound `CNC1(C(=O)N2CCC(c3ccc(Nc4ncc(Cl)c(NCc5cccc6c5C(C)(C)C(=O)N6)n4)cc3)CC2)CC1` [Example I-299], the concentration giving a half-maximal response (EC50) in assay [1] is below 50 nM. The IC50 in assay [2] turned out to be 8 nM. On the same counts, the results for `COCCN1CCCC(c2ccc(Nc3ncc(Br)c(NCc4cccc5c4C(C)(C)C(=O)N5)n3)cc2)C1` (racemic) [Example I-357] are 50 to 250 nM and 0.7 nM. Take `COc1cc(C2CCCN(CCO)C2)ccc1Nc1ncc(Br)c(NCc2cccc3c2C(C)(C)C(=O)N3)n1` (racemic) [Example I-361]: the EC50 in assay [1] is below 50 nM. As to `Cc1cc(C2CCCN(CCO)C2)ccc1Nc1ncc(Cl)c(NCc2cccc3c2C(C)(C)C(=O)N3)n1` (racemic) [Example I-382], the EC50 in assay [1] was below 50 nM. For the same compound, the IC50 in assay [2] was 1 nM.

As for `CNC(=O)CN1CCC(c2ccc(Nc3ncc(Cl)c(NCc4cccc5c4C(C)(C)C(=O)N5)n3)c(C)c2)CC1` [Example I-370], the EC50 in assay [1] is below 50 nM. Consider `CCN1CCC(NC(=O)c2ccc(Nc3ncc(C(F)(F)F)c(NCc4cccc5c4C(C)(C)C(=O)N5)n3)c(OC)c2)CC1` [Example I-225], for which, in assay [2], the IC50 stood at 2 nM. As to `COc1cc(N2CCN(C)CC2)ccc1Nc1ncc(C(F)(F)F)c(NCc2cccc3c2CC(=O)N3)n1` [Example I-119], the IC50 in assay [2] was determined as 11 nM.

As for `CN(C)CC(=O)N1CCC(c2ccc(Nc3ncc(Cl)c(NCc4cccc5c4C(C)(C)C(=O)N5)n3)cc2)CC1` [Example I-43], the IC50 in assay [2] worked out at 7 nM. As to `COc1cc(N2CCN(C(=O)CCN(C)C)CC2)ccc1Nc1ncc(C(F)(F)F)c(NCc2cccc3c2C(C)(C)C(=O)N3)n1` [Example I-89], in assay [2], the IC50 came out at 0.18 nM.

For the compound `COc1cc(N2CCN(C(C)C)[C@H](C)C2)ccc1Nc1ncc(C(F)(F)F)c(NCc2cccc3c2C(C)(C)C(=O)N3)n1` [Example I-106], in assay [2], the IC50 is 0.08 nM.

Turning to `COc1cc(N2CCC(N3CCC(OC)CC3)CC2)ccc1Nc1ncc(C(F)(F)F)c(NCc2cccc3c2C(C)(C)C(=O)N3)n1` [Example I-170], in assay [2], the IC50 was 0.33 nM.

With `COc1cc(N2CCC(C(=O)N(C)C)CC2)ccc1Nc1ncc(C(F)(F)F)c(NCc2cccc3c2C(C)(C)C(=O)N3)n1` [Example I-230], the IC50 in assay [2] was found to be 13 nM. Regarding `COc1cc(N2CCN(C3CCC3)[C@H](C)C2)ccc1Nc1ncc(C(F)(F)F)c(NCc2cccc3c2C(C)(C)C(=O)N3)n1` [Example I-109], the IC50 in assay [2] amounted to 0.87 nM.

As to `CN(CC(=O)N1CCC(c2ccc(Nc3ncc(Cl)c(NCc4cccc5c4C(C)(C)C(=O)N5)n3)cc2)CC1)C(=O)OC(C)(C)C` [Example I-46], the IC50 in assay [2] worked out at 29 nM. For the compound `COc1cc(N2CCN(C(=O)CCCN(C)C)CC2)ccc1Nc1ncc(Cl)c(NCc2cccc3c2C(C)(C)C(=O)N3)n1` [Example I-64], in assay [2], the concentration for half-maximal inhibition (IC50) was 2 nM. `CNC(=O)C1CCN(c2ccc(Nc3ncc(C(F)(F)F)c(NCc4cccc5c4C(C)(C)C(=O)N5)n3)c(OC)c2)CC1` [Example I-227]: in assay [2], the IC50 came to 5 nM. The same measure, in the same setting: the figure for `COc1cc(N2CCC(N3CCN(C)CC3)CC2)ccc1Nc1ncc(C(F)(F)F)c(NCc2cccc3c2CC(=O)N3)n1` [Example I-202] is 24 nM; for `CN1CCN(c2ccc(Nc3ncc(C(F)(F)F)c(NCc4cccc5c4C(C)(C)C(=O)N5)n3)cn2)CC1` [Example I-133] it is 13 nM; for `CC1(C)C(=O)Nc2cccc(CNc3nc(Nc4ccc(C5CCN(CCO)CC5)cc4)ncc3Cl)c21` [Example I-205] it is 2 nM. In the case of `Cc1cc(C2CCN(CC(C)(C)O)CC2)c(C)cc1Nc1ncc(Cl)c(NCc2cccc3c2C(C)(C)C(=O)N3)n1` [Example I-338], the EC50 in assay [1] lay within 250 to 3000 nM. As for `COc1cc(N2CCN(CC3CC3)[C@H](C)C2)ccc1Nc1ncc(C(F)(F)F)c(NCc2cccc3c2C(C)(C)C(=O)N3)n1` [Example I-131], the IC50 in assay [2] stood at 0.33 nM. Still for that read-out and setting: the figure for `COc1cc(N2CC3CC2CN3C(=O)N(C)C)ccc1Nc1ncc(C(F)(F)F)c(NCc2cccc3c2C(C)(C)C(=O)N3)n1` (stereo not shown) [Example I-81] is 81 nM; for `COc1cc(N2CCN(C3CCN(C)CC3)CC2)ccc1Nc1ncc(C(F)(F)F)c(NCc2cccc3c2C(C)(C)C(=O)N3)n1` [Example I-135] it is 0.57 nM. As for `COc1cc(N2CCC(N(C)CCO)CC2)ccc1Nc1ncc(C(F)(F)F)c(NCc2cccc3c2CC(=O)N3)n1` [Example I-186], the IC50 in assay [2] came out at 4 nM. As to `COc1cc(N2CCN(C(=O)CN(C)C)CC2)ccc1Nc1ncc(C(F)(F)F)c(NCc2cccc3c2CC(=O)N3)n1` [Example I-91], the IC50 in assay [2] stood at 6 nM. Same read-out and setting: in the case of `COc1cc(N2CCN(C3CCN(S(=O)(=O)N(C)C)CC3)CC2)ccc1Nc1ncc(C(F)(F)F)c(NCc2cccc3c2CC(=O)N3)n1` [Example I-124] it was 12 nM; in that of `COc1cc(N2CCN(C(C)C)CC2)ccc1Nc1ncc(C(F)(F)F)c(NCc2cccc3c2C(C)(C)C(=O)N3C)n1` [Example I-128], 2 nM; in that of `CC1(C)C(=O)Nc2cccc(CNc3nc(Nc4ccc(C5CCN(C(=O)C6CNC6)CC5)cc4)ncc3Cl)c21` [Example I-52], 7 nM. On the same count and under the same terms, the figure for `CC1(C)C(=O)Nc2cccc(CNc3nc(Nc4ccc(C5CCN(CCS(C)(=O)=O)CC5)cc4)ncc3Cl)c21` [Example I-207] is 10 nM; for `COc1cc(N2CCN(C3CCN(C(=O)N(C)C)CC3)CC2)ccc1Nc1ncc(C(F)(F)F)c(NCc2cccc3c2CC(=O)N3)n1` [Example I-123] it is 12 nM.
